Source: publication PMC7932521, “2-aminobenzimidazoles for leishmaniasis: From initial hit discovery to in vivo profiling” (PLoS Neglected Tropical Diseases, 2021)

molecular target: T1, ETB (Homo sapiens, UniProt P24530); experiment: Bioprofiling 6pt Ag ETB CHO; format: cell-based; conditions: agonist readout
T1 construct: expressed in transfected cells; host or cells: CHO
T1 sequence (P24530 27-442): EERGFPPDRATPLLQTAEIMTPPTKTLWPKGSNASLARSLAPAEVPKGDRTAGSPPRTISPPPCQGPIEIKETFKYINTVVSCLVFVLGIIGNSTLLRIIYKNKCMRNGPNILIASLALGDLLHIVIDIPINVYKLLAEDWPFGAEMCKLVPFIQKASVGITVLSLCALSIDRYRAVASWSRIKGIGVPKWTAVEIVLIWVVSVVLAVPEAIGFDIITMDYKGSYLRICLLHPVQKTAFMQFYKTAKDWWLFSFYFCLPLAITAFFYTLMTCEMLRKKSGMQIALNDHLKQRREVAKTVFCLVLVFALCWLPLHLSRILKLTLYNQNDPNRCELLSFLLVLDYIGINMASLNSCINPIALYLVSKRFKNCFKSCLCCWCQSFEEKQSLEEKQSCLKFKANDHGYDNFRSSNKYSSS
Procedure: (§1) The compounds were evaluated across a panel of 20 liability targets (37 functional assays) which included functional cell-based GPCRs and ion channels in both agonist and antagonist readout, measuring calcium flux and biochemical functional assays for nuclear hormone receptors and phosphodiesterases using TR-FRET format, in a 6 point 1:3 dilution dose series (maximum final concentration of 10 μM).

Structure (SMILES)	EC50 [µM]
Cn1nc(C(F)(F)F)cc1C(=O)Nc1nc2ccc(C#N)cc2n1CC(F)(F)F [Compound 39, O=C(c1cc(C(F)(F)F)nn1C)Nc2nc(ccc(C#N)c3)c3n2CC(F)(F)F]	> 10
COc1ccc(C(=O)Nc2nc3ccc(C#N)cc3n2CC(F)(F)F)cn1 [Compound 43, O=C(c1ccc(OC)nc1)Nc2nc(ccc(C#N)c3)c3n2CC(F)(F)F]	> 10
Cn1nccc1C(=O)Nc1nc2ccc(C#N)cc2n1CC(F)(F)F [Compound 30, O=C(c1ccnn1C)Nc2nc(ccc(C#N)c3)c3n2CC(F)(F)F]	> 10

system: not listed separately; experiment: Medium protein binding; format: in vitro ADME; conditions: % bound
Procedure: For plasma protein binding, pooled plasma was thawed in a water bath at 37°C and centrifuged at 4,000 rpm for 5 min to remove any clots. The pH value was measured and adjusted to 7.4, if necessary. RPMI medium (pH 7.4) supplemented with 10% fetal calf serum was used. Working solutions (400 μM) of test compounds were prepared by diluting appropriate volume of the stock solutions with DMSO. Working solutions (400 μM) were spiked into plasma to achieve 2 μM final concentrations as loading solutions. The concentration of organic solvent in the final solutions was 0.5% DMSO. The dialysis instrument was assembled following manufacturer’s instructions. Aliquots of loading solution were loaded in triplicate to the donor side of each dialysis well and dialyzed against an equal volume of dialysis buffer. The plate was shaken and incubated for 6 hours in a humidified incubator with 5% CO2 at 37°C. At the end of dialysis, aliquots of dialysate and retentate were removed into sample collection plates. Each sample was matched with an opposite blank buffer or plasma, with a ratio of matrix:dialysis buffer of 50:50 (v:v) in each well and participated with 500μL of stop solution (50% acetonitrile/methanol; internal standards—200 ng/mL tolbutamide, labetalol and 50 ng/mL metformin). All sample collection plates were rotated at 800 rpm for 5 min to mix samples and centrifuged at 20°C, 4000 rpm for 20 min. Aliquots of supernatant of all the samples were removed and injected into LC-MS/MS. Results were calculated as the percentage of remaining parent compound in plasma or medium after incubation.

Structure (SMILES)	Medium binding [%]
Cn1nc(C(F)(F)F)cc1C(=O)Nc1nc2ccc(C#N)cc2n1CC(F)(F)F [Compound 39, O=C(c1cc(C(F)(F)F)nn1C)Nc2nc(ccc(C#N)c3)c3n2CC(F)(F)F]	88.3
Cn1nccc1C(=O)Nc1nc2ccc(C#N)cc2n1CC(F)(F)F [Compound 30, O=C(c1ccnn1C)Nc2nc(ccc(C#N)c3)c3n2CC(F)(F)F]	29.2

same assay, conditions: S1 Data

Structure (SMILES)	Media Binding [%]
Cn1nc(C(F)(F)F)cc1C(=O)Nc1nc2ccc(C#N)cc2n1CC(F)(F)F [Compound 39, O=C(c1cc(C(F)(F)F)nn1C)Nc2nc(ccc(C#N)c3)c3n2CC(F)(F)F]	88.34
COc1ccc(C(=O)Nc2nc3ccc(C#N)cc3n2CC(F)(F)F)cn1 [Compound 43, O=C(c1ccc(OC)nc1)Nc2nc(ccc(C#N)c3)c3n2CC(F)(F)F]	56.74
Cn1nccc1C(=O)Nc1nc2ccc(C#N)cc2n1CC(F)(F)F [Compound 30, O=C(c1ccnn1C)Nc2nc(ccc(C#N)c3)c3n2CC(F)(F)F]	29.15

molecular target: T2, B2 (Homo sapiens, UniProt P30411); experiment: Bioprofiling 6pt Antag B2 CHO; format: cell-based; conditions: antagonist readout vs Bradykinin
T2 construct: expressed in transfected cells; host or cells: CHO
T2 sequence (P30411 1-391): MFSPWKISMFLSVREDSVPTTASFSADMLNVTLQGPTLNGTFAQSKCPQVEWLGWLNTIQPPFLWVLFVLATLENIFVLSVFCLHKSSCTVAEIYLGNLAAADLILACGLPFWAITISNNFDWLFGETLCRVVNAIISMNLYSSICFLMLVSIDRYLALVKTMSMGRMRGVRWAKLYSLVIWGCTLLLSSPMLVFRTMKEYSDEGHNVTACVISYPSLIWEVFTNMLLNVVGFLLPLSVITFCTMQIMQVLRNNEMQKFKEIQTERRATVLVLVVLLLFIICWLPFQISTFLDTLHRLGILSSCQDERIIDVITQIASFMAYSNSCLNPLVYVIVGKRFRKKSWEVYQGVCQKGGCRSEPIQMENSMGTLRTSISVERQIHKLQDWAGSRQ
Procedure: as §1

Structure (SMILES)	IC50 [µM]
Cn1nc(C(F)(F)F)cc1C(=O)Nc1nc2ccc(C#N)cc2n1CC(F)(F)F [Compound 39, O=C(c1cc(C(F)(F)F)nn1C)Nc2nc(ccc(C#N)c3)c3n2CC(F)(F)F]	> 10
COc1ccc(C(=O)Nc2nc3ccc(C#N)cc3n2CC(F)(F)F)cn1 [Compound 43, O=C(c1ccc(OC)nc1)Nc2nc(ccc(C#N)c3)c3n2CC(F)(F)F]	> 10
Cn1nccc1C(=O)Nc1nc2ccc(C#N)cc2n1CC(F)(F)F [Compound 30, O=C(c1ccnn1C)Nc2nc(ccc(C#N)c3)c3n2CC(F)(F)F]	> 10

molecular target: PDE3A (Homo sapiens, UniProt Q14432); experiment: Bioprofiling 6pt Antag PDE3A; format: biochemical; conditions: substrate cAMP
Procedure: as §1

Sequence of PDE3A (Q14432 whole entry): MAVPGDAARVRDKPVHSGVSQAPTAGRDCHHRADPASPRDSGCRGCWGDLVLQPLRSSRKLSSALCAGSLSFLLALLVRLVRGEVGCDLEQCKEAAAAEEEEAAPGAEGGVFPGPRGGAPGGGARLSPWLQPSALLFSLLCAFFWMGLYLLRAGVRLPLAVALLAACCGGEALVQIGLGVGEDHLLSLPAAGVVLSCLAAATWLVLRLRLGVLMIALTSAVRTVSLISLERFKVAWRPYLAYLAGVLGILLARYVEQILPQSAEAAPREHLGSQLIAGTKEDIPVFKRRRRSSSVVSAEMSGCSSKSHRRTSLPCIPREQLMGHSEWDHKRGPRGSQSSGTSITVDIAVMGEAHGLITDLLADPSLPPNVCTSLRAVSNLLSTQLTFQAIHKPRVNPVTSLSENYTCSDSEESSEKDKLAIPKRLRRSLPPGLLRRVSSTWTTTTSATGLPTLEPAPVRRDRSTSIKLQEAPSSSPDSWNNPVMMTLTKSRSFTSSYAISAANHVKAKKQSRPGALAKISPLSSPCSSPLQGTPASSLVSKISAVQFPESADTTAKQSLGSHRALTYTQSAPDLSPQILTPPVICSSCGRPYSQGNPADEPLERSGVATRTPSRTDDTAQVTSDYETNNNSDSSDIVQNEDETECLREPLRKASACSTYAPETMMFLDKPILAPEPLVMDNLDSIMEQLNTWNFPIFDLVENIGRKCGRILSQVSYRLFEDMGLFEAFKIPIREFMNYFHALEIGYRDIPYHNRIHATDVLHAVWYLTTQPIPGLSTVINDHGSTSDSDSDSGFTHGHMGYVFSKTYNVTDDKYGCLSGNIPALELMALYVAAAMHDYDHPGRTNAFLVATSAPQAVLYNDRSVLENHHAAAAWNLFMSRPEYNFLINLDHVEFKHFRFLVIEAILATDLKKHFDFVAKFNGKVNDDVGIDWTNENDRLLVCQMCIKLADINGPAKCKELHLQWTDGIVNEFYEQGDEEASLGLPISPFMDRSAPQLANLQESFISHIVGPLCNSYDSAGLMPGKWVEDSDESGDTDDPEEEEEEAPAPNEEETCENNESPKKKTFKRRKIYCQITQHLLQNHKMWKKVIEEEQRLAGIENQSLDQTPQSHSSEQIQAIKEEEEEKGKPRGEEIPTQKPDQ

Structure (SMILES)	IC50 [µM]
Cn1nc(C(F)(F)F)cc1C(=O)Nc1nc2ccc(C#N)cc2n1CC(F)(F)F [Compound 39, O=C(c1cc(C(F)(F)F)nn1C)Nc2nc(ccc(C#N)c3)c3n2CC(F)(F)F]	3.32
COc1ccc(C(=O)Nc2nc3ccc(C#N)cc3n2CC(F)(F)F)cn1 [Compound 43, O=C(c1ccc(OC)nc1)Nc2nc(ccc(C#N)c3)c3n2CC(F)(F)F]	> 10
Cn1nccc1C(=O)Nc1nc2ccc(C#N)cc2n1CC(F)(F)F [Compound 30, O=C(c1ccnn1C)Nc2nc(ccc(C#N)c3)c3n2CC(F)(F)F]	> 10

molecular target: T3, D2L (Homo sapiens, UniProt P14416); experiment: Bioprofiling 6pt Ag D2L CHO; format: cell-based; conditions: agonist readout
T3 construct: expressed in transfected cells; host or cells: CHO
Procedure: as §1

T3 sequence (P14416 whole entry): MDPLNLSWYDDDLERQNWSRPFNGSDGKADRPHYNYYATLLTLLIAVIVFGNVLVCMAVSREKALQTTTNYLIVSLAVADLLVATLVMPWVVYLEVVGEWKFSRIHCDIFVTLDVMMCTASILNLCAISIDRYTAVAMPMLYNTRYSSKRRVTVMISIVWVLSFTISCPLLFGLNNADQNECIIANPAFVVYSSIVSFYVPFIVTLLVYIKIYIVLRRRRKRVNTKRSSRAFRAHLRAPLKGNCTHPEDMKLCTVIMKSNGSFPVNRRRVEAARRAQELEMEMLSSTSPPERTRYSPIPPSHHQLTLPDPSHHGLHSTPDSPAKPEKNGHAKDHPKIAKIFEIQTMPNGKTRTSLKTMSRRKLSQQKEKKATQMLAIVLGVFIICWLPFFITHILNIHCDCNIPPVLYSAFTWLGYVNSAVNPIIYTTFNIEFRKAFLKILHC

Structure (SMILES)	EC50 [µM]
Cn1nc(C(F)(F)F)cc1C(=O)Nc1nc2ccc(C#N)cc2n1CC(F)(F)F [Compound 39, O=C(c1cc(C(F)(F)F)nn1C)Nc2nc(ccc(C#N)c3)c3n2CC(F)(F)F]	> 10
COc1ccc(C(=O)Nc2nc3ccc(C#N)cc3n2CC(F)(F)F)cn1 [Compound 43, O=C(c1ccc(OC)nc1)Nc2nc(ccc(C#N)c3)c3n2CC(F)(F)F]	> 10
Cn1nccc1C(=O)Nc1nc2ccc(C#N)cc2n1CC(F)(F)F [Compound 30, O=C(c1ccnn1C)Nc2nc(ccc(C#N)c3)c3n2CC(F)(F)F]	> 10

molecular target: T4, CB1 (Homo sapiens, UniProt P21554); experiment: Bioprofiling 6pt Ag CB1 CHO; format: cell-based; conditions: agonist readout
T4 construct: expressed in transfected cells; host or cells: CHO
Procedure: as §1

T4 sequence (P21554 whole entry): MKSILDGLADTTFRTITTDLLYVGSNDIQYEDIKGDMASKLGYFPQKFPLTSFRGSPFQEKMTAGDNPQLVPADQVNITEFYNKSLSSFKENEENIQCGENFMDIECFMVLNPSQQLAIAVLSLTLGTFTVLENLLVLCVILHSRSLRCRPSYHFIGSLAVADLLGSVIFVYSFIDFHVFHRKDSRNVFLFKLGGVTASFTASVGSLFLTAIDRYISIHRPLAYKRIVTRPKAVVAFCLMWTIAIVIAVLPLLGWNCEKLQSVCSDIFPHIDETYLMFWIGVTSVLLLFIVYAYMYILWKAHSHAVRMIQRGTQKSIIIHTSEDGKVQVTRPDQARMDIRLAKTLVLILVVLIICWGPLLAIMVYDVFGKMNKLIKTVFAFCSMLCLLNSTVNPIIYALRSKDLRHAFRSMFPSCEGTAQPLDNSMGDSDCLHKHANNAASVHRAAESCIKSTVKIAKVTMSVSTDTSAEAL

Structure (SMILES)	EC50 [µM]
Cn1nc(C(F)(F)F)cc1C(=O)Nc1nc2ccc(C#N)cc2n1CC(F)(F)F [Compound 39, O=C(c1cc(C(F)(F)F)nn1C)Nc2nc(ccc(C#N)c3)c3n2CC(F)(F)F]	> 10
COc1ccc(C(=O)Nc2nc3ccc(C#N)cc3n2CC(F)(F)F)cn1 [Compound 43, O=C(c1ccc(OC)nc1)Nc2nc(ccc(C#N)c3)c3n2CC(F)(F)F]	> 10
Cn1nccc1C(=O)Nc1nc2ccc(C#N)cc2n1CC(F)(F)F [Compound 30, O=C(c1ccnn1C)Nc2nc(ccc(C#N)c3)c3n2CC(F)(F)F]	> 10

molecular target: T5, A1 (Homo sapiens, UniProt P30542); experiment: Bioprofiling 6pt Antag A1 CHO; format: cell-based; conditions: antagonist readout vs N6-Cyclopentyladenosine (CPA)
T5 construct: expressed in transfected cells; host or cells: CHO
T5 sequence (P30542 1-326): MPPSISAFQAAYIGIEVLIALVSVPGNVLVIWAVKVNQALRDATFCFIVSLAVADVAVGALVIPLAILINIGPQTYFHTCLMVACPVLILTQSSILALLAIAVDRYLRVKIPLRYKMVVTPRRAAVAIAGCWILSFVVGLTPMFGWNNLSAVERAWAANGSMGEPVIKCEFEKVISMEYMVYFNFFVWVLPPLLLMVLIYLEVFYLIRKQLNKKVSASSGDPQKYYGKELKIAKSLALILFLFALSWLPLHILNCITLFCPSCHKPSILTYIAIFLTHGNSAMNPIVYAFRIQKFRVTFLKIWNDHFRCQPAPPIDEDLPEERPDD
Procedure: as §1

Structure (SMILES)	IC50 [µM]
Cn1nc(C(F)(F)F)cc1C(=O)Nc1nc2ccc(C#N)cc2n1CC(F)(F)F [Compound 39, O=C(c1cc(C(F)(F)F)nn1C)Nc2nc(ccc(C#N)c3)c3n2CC(F)(F)F]	> 10
COc1ccc(C(=O)Nc2nc3ccc(C#N)cc3n2CC(F)(F)F)cn1 [Compound 43, O=C(c1ccc(OC)nc1)Nc2nc(ccc(C#N)c3)c3n2CC(F)(F)F]	> 10
Cn1nccc1C(=O)Nc1nc2ccc(C#N)cc2n1CC(F)(F)F [Compound 30, O=C(c1ccnn1C)Nc2nc(ccc(C#N)c3)c3n2CC(F)(F)F]	> 10

molecular target: T6, Alpha2A (Homo sapiens, UniProt P08913); experiment: Bioprofiling 6pt Antag Alpha2A CHO; format: cell-based; conditions: antagonist readout vs UK-14304
T6 construct: expressed in transfected cells; host or cells: CHO
T6 sequence (P08913 1-465): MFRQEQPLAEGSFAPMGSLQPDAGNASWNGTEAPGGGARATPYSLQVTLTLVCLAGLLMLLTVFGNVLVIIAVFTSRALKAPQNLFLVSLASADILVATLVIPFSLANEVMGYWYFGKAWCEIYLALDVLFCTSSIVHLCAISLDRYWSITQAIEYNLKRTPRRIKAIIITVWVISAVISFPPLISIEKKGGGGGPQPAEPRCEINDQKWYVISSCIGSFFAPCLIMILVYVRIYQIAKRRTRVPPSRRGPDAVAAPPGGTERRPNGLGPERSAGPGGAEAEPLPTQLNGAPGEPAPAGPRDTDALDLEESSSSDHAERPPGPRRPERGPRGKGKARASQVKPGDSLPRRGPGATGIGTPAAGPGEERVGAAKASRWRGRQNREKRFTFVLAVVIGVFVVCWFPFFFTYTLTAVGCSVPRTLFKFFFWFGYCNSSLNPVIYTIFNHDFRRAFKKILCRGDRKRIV
Procedure: as §1

Structure (SMILES)	IC50 [µM]
Cn1nc(C(F)(F)F)cc1C(=O)Nc1nc2ccc(C#N)cc2n1CC(F)(F)F [Compound 39, O=C(c1cc(C(F)(F)F)nn1C)Nc2nc(ccc(C#N)c3)c3n2CC(F)(F)F]	> 10
COc1ccc(C(=O)Nc2nc3ccc(C#N)cc3n2CC(F)(F)F)cn1 [Compound 43, O=C(c1ccc(OC)nc1)Nc2nc(ccc(C#N)c3)c3n2CC(F)(F)F]	> 10
Cn1nccc1C(=O)Nc1nc2ccc(C#N)cc2n1CC(F)(F)F [Compound 30, O=C(c1ccnn1C)Nc2nc(ccc(C#N)c3)c3n2CC(F)(F)F]	> 10

molecular target: T7, H1 (Homo sapiens, UniProt P35367); experiment: Bioprofiling 6pt Ag H1 CHO; format: cell-based; conditions: agonist readout
T7 construct: expressed in transfected cells; host or cells: CHO
Procedure: as §1

T7 sequence (P35367 whole entry): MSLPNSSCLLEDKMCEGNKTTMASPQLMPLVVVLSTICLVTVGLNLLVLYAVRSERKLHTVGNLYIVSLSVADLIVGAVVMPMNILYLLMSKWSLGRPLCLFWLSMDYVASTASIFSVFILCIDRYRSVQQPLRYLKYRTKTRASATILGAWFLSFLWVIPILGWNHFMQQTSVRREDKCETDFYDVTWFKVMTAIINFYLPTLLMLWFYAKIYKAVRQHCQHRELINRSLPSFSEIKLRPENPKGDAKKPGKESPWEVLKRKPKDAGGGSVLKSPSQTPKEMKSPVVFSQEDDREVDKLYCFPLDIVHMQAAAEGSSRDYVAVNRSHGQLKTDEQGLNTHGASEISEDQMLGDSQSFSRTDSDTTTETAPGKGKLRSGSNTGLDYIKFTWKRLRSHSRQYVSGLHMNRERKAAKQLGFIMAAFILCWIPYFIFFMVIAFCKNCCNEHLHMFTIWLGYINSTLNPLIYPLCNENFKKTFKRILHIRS

Structure (SMILES)	EC50 [µM]
Cn1nc(C(F)(F)F)cc1C(=O)Nc1nc2ccc(C#N)cc2n1CC(F)(F)F [Compound 39, O=C(c1cc(C(F)(F)F)nn1C)Nc2nc(ccc(C#N)c3)c3n2CC(F)(F)F]	> 10
COc1ccc(C(=O)Nc2nc3ccc(C#N)cc3n2CC(F)(F)F)cn1 [Compound 43, O=C(c1ccc(OC)nc1)Nc2nc(ccc(C#N)c3)c3n2CC(F)(F)F]	> 10
Cn1nccc1C(=O)Nc1nc2ccc(C#N)cc2n1CC(F)(F)F [Compound 30, O=C(c1ccnn1C)Nc2nc(ccc(C#N)c3)c3n2CC(F)(F)F]	> 10

system: CHO; experiment: Bioprofiling 6pt Ag CHO Hamster; format: cell-based; conditions: agonist readout
Procedure: as §1

Structure (SMILES)	EC50 [µM]
Cn1nc(C(F)(F)F)cc1C(=O)Nc1nc2ccc(C#N)cc2n1CC(F)(F)F [Compound 39, O=C(c1cc(C(F)(F)F)nn1C)Nc2nc(ccc(C#N)c3)c3n2CC(F)(F)F]	> 10
COc1ccc(C(=O)Nc2nc3ccc(C#N)cc3n2CC(F)(F)F)cn1 [Compound 43, O=C(c1ccc(OC)nc1)Nc2nc(ccc(C#N)c3)c3n2CC(F)(F)F]	> 10
Cn1nccc1C(=O)Nc1nc2ccc(C#N)cc2n1CC(F)(F)F [Compound 30, O=C(c1ccnn1C)Nc2nc(ccc(C#N)c3)c3n2CC(F)(F)F]	> 10

molecular target: T6, Alpha2A; experiment: Bioprofiling 6pt Ag Alpha2A CHO; format: cell-based; conditions: agonist readout
Procedure: as §1

Structure (SMILES)	EC50 [µM]
Cn1nc(C(F)(F)F)cc1C(=O)Nc1nc2ccc(C#N)cc2n1CC(F)(F)F [Compound 39, O=C(c1cc(C(F)(F)F)nn1C)Nc2nc(ccc(C#N)c3)c3n2CC(F)(F)F]	> 10
COc1ccc(C(=O)Nc2nc3ccc(C#N)cc3n2CC(F)(F)F)cn1 [Compound 43, O=C(c1ccc(OC)nc1)Nc2nc(ccc(C#N)c3)c3n2CC(F)(F)F]	> 10
Cn1nccc1C(=O)Nc1nc2ccc(C#N)cc2n1CC(F)(F)F [Compound 30, O=C(c1ccnn1C)Nc2nc(ccc(C#N)c3)c3n2CC(F)(F)F]	> 10
